Source: the OPERA property sets (Mansouri et al. 2018)
Peptide text beside a SMILES is read from it.

Structure (SMILES)	logP
Cc1cn(C2OC(CO)C(O)C2O)c(=O)nc1N (stereo not given)	-2.01
OCc1ccccc1O	0.73
CCOC(=O)c1ccc(N)cc1	1.86
Nc1ccc(C(=O)O)c(Br)c1	1.49
CCC(C)OC(=O)C(C(=O)OC(C)CC)=C1SCCS1 (stereo not given)	4.53
CC(=O)N[C@@H](CC(C)C)C(=O)N[C@H](C(N)=O)C(C)C (Ac-Leu-Val-NH2)	0.26
COc1cccnc1	0.99
CCCCCCCI	4.7
CCCC(C)(COC(N)=O)COC(N)=O	0.7
CNC(=O)C=Cc1ccccc1	1.81
O=[N+]([O-])c1cc2ccccc2[n+]([O-])c1	0.56
CC(=O)C(=Cc1ccccc1C)C(C)=O	1.98
c1ccsc1	1.81
CCC(C)NC(=O)C=C(SC)c1ccccc1 (stereo not given)	3.03
CC(O)CCC(=O)c1ccoc1 (stereo not given)	0.84
Clc1ccc(Cl)c(Cl)c1Cl	4.6
Nc1nccs1	0.38
O=C(Nc1ccccc1)NS(=O)(=O)c1ccc(Cl)cc1	3.61
O=C(Nc1ccccc1)Nc1ccccc1	3
C=CCOc1ccc(CC(=O)O)cc1Cl	2.48
CNCC(=O)O	-2.78
CCOc1cccc(Cl)n1	2.55
FC(F)(F)Br	1.86
O=C(O)C(c1ccc(Cl)cc1)n1cccc1 (stereo not given)	2.3
CC(=O)Nc1cccc(C(C)=O)c1	1.06

Structure (SMILES)	logP
COC(=O)C(Cc1ccc(O)cc1)NC(C)=O (stereo not given)	0.33
C=CC(=O)OC	0.8
CN(C)C(N(C)C)=S(I)c1ccc(Cl)c(Cl)c1 (stereo not given)	0.49
C#CC(C)N(C)C(=O)Nc1ccc(Cl)cc1 (stereo not given)	3
CC(C#N)c1ncc([N+](=O)[O-])[nH]1 (stereo not given)	-0.07
CCC(C)C(NC(=O)C(CC(N)=O)NC(C)=O)C(N)=O (stereo not drawn) (Ac-Asn-Ile-NH2; configuration not given here)	-1.43
COc1cc(SC)c(OC)cc1CC(C)N (stereo not given)	2.17
O=C(NCCO)C(F)(F)Cn1ccnc1[N+](=O)[O-]	-0.52
COc1ccccc1N	1.18
OCC(O)CO	-1.76
CC(=O)OC1(C(=O)CO)CCC2C3CCC4=CC(=O)CCC4(C)C3C(=O)CC21C (stereo not given)	2.45
Nc1nc(C=Cc2ccc([N+](=O)[O-])o2)no1	1.3
Clc1c(Cl)c(Cl)c2ccccc2c1Cl	5.75
O=C(O)c1ccccc1Nc1ccccc1	4.36
Nc1cc(N=O)ccc1O	0.03
CCNc1nc(NC(C)C)nc(SC(F)F)n1	3.7
Cc1cccc(OCC(=O)NNC(C)C)c1	1.77
CCc1cccc(C)c1N(C(=O)CCl)C(C)COC (stereo not given)	3.13
OCC1OC(n2cnc3c(S)ncnc32)C(O)C1O (stereo not given)	-0.6
CCNc1nc(NCC(C)C)nc(SC(F)F)n1	4.3
O=c1[nH]cnc2n[nH]nc12	-1.97
Cc1c(Cl)ccc(OC(C)C(O)=Nc2ccccc2)c1Cl (stereo not given)	4.8
CON(C)C(=O)Nc1ccc(F)cc1	1.46
NS(=O)(=O)c1cccc(Cl)c1	1.29
C1CCCC1	3

Structure (SMILES)	logP
COP(=S)(OC)Oc1ccc([N+](=O)[O-])cc1	2.86
OCC=CCO	-0.81
CC(C)(C)c1ccccc1	4.11
O=[N+]([O-])c1ccc(O/N=C/c2cc(Br)c(O)c(Br)c2)c([N+](=O)[O-])c1	3.3
O=[N+]([O-])c1ccccn1	0.48
CCCCOC(=O)c1ccc(N)cc1	2.87
Cl[C@H]1[C@H](Cl)[C@@H](Cl)[C@@H](Cl)[C@H](Cl)[C@H]1Cl (racemic)	3.72
O=S(=O)(O)c1cc(O)c2ccccc2c1	-0.18
CC(C)(C)NC(=O)NO	0.5
CC(=O)c1cccc(C(C)=O)c1	1.43
C=CC(=O)O	0.35
CCCCOCC1CO1 (stereo not given)	0.63
CN(C)C(=O)c1cccnc1	-0.48
CCOP(=O)(OCC)SCSCC	2.07
Nc1ncnc2nc(-c3ccccc3)[nH]c12	2.31
CCC(=O)c1ccccc1O	2.54
Ic1nc(I)c(I)[nH]1	2.78
O=C(O)c1ccc([N+](=O)[O-])cc1	1.89
COc1cc(S(C)=O)ccc1-c1nc2nccnc2[nH]1 (stereo not given)	0.66
Cc1cccc(OC(=O)c2ccc(N)cc2O)c1	3.64
CC(Cl)(Cl)C(=O)O	0.78
Cc1ccncc1	1.22
O=C(O)CCn1nnc2ccccc21	-0.63
Cc1cccc(O)c1	1.96
CC(C)c1cnc([N+](=O)[O-])n1C	1.09

Structure (SMILES)	logP
Cc1cccc(C)c1NC(=O)C1CNCCN1 (stereo not given)	0.38
COc1ccccc1[N+](=O)[O-]	1.73
c1ccc2cnccc2c1	2.08
CC1CO1 (stereo not given)	0.03
CC(=O)OC(C)(C)C	1.76
Cc1ccc(S(I)=C(N(C)C)N(C)C)c([N+](=O)[O-])c1 (stereo not given)	0.23
O=[N+]([O-])c1ccc(O)c2ncccc12	1.99
CN(C)CCN1C(=O)c2ccccc2N(C)c2ccccc21	2.5
CCCCC(CC)COP(=O)(Oc1ccccc1)Oc1ccccc1 (stereo not given)	5.73
CCCCOCC	2.03
COc1noc2c1CNCC2	-0.04
CCCCCC=O	1.78
CC(C)(C)c1cc(O)ccc1[N+](=O)[O-]	3.65
CCCCn1cnc2c(N)ncnc21	1.25
O=C1NC(=O)C(c2ccccc2)(c2ccccc2)N1	2.47
O=C1CCC(=O)N1c1ccccc1[N+](=O)[O-]	0.36
NC(Cc1c[nH]c2ccccc12)C(=O)O (racemic)	-1.05
CCOc1ccc(CC(=O)O)cc1	1.95
C=O	0.35
CN(C)C(=O)N(c1ccccc1)c1ccccc1	2.8
FC(F)(F)c1ccccc1	3.01
Nc1cccc(CO)c1	-0.05
Cn1cccc1C=NNC(=S)Nc1ccccc1	3.64
CC(=O)NC(C)(C)C(N)=O	-0.87
NC(=O)c1ccc(O)cc1	0.33

Structure (SMILES)	logP
CCCCOc1ccc([N+](=O)[O-])cc1	3.5
CCC#N	0.16
Nc1cccc(F)c1	1.3
FC(F)(F)c1nc2c(Cl)cc(Cl)c(Cl)c2[nH]1	3.78
N#Cc1cccc(C=O)c1	1.18
CCCc1ncc([N+](=O)[O-])n1CCNC(=S)OC	1.94
CCOC(=O)CCl	0.94
Clc1cccc2cccnc12	2.44
CC(=O)N[C@@H](CC(C)C)C(=O)N[C@@H](CC(N)=O)C(N)=O	-1.3
CCCS(=O)(=O)CCn1c([N+](=O)[O-])cnc1C	0.23
Fc1cc(F)cc(Cn2cc[nH]c2=S)c1	1.98
O=c1cccc[nH]1	-0.58
CCCOc1c(OC)cc(CCN)cc1OC	1.7
O=C(O)C(c1ccccc1)c1ccccc1	3.09
CN(C)c1ccc2cccnc2c1	2.71
C=C1C(C)C2C(Cc3ccccc3)NC(=O)C23OC(=O)C=CC(O)CCCC(C)CC=CC3C1O (stereo not given)	3.37
CN(C)C(N(C)C)=S(I)c1cc(Cl)c(Cl)c(Cl)c1 (stereo not given)	0.74
NC(=O)C1CCCN1C(=O)C(Cc1cn(C(=O)OC2CCCCC2)cn1)NC(=O)C1CCC(=O)N1 (stereo not given)	0.6
CCNc1nc(Cl)nc(NCC)n1	2.18
CCCCCCCC(C)=O	3.14
COc1ccc(C(=O)O)cc1OC	1.61
CCCCCCOc1ccc(S(N)(=O)=O)cc1	2.93
O=Cc1cccnc1	0.29
C=CCC1(C(C)CCC)C(=O)NC(=S)NC1=O (stereo not given)	3.23
O=NN(CCCl)C(=O)NCCCl	1.53

Structure (SMILES)	logP
CN(C)CC/C=C1\c2ccccc2Sc2ccc(Cl)cc21	5.18
NC(=O)Oc1ccccc1	1.08
FC(F)(F)c1nc2ccccc2[nH]1	2.67
O=C(O)C1CCCCC1	1.96
CCCOc1cccc(C=C(C(=O)OCC)C(=O)OCC)c1	4
CCCCc1c(C)nc(NCC)nc1OS(=O)(=O)N(C)C	2.7
CC(=O)Nc1ccccn1	0.61
CN(C)C(=O)C=Cc1ccccc1	1.73
CCOCCOC(=O)C(C#N)=C(CC)Nc1ccc(N)cc1	2.27
CCNC(=O)c1[nH]nc(C)c1[N+](=O)[O-]	0.13
O=c1[nH]c2ccccc2o1	1.16
c1ccc(-n2cccn2)cc1	2.2
CCOc1ccc(O)cc1	1.81
CCC(C)c1ccc(O)cc1 (stereo not given)	3.08
CCC(C)(C)C(=O)O	1.9
c1ccc2c(c1)Oc1ccccc1S2	4.54
Nc1cccc(Br)c1	2.1
COc1cc(S(C)=O)ccc1-c1cn2ccnc(OC)c2n1 (stereo not given)	1.49
CNC(=O)Oc1ccc(C(C)C)c(C)c1	3.11
C=C(C)[C@H]1Cc2c(ccc3c2O[C@@H]2COc4cc(OC)c(OC)cc4[C@@H]2C3=O)O1	4.1
CC1OC(C)OC(C)O1 (stereo not given)	0.67
CCN(CC)c1cc(C(=O)NN)ccn1	1.12
N#CCCN(CCC#N)N=O	0.08
CCN(CC)CCNc1ccc(C)c(Cl)c1	4.14
CN1C(=O)CN=C(c2ccccc2F)c2cc(F)ccc21	2.41

Structure (SMILES)	logP
CC(C)CCOC(=O)c1cc(O)c(O)c(O)c1	2.8
CCCl	1.43
FC(F)(F)c1ccccc1Cl	3.53
COc1ccc(NC=O)cc1	1.03
CC(C)(C)C1(O)CCN2CC3c4ccccc4CCc4cccc(c43)C2C1 (stereo not given)	5.2
COc1ccc(C(=O)N(C)C)cc1	0.96
Oc1ccc(C(F)(F)F)cc1	2.82
Nc1cnc2ccccc2c1	1.63
O=C1c2ccccc2C(=O)N1CCCCBr	2.96
C=C	1.13
COc1ccccc1O	1.32
CCN(CC)CC(F)(F)F	1.88
CC(=O)C(=Cc1ccccc1)C(C)=O	1.59
O=C(OCCOCCO)c1ccccc1	1.16
CCC1(C2=CCCCC2)C(=O)NC(=O)NC1=O	1.77
CC(C)C(=O)OCC1CCC(n2cnc3c(=O)[nH]cnc32)O1 (stereo not given)	0.02
O=C(Oc1ccccc1)Oc1ccccc1	3.28
C=C(CC(=O)c1ccc(-c2ccccc2Cl)cc1)C(=O)O	3.32
O=C(O)CCS	0.43
OCCNCCO	-1.43
